Broadly, the melting point is the temperature, or range, at which the solid turns liquid.

Where a name gives a salt, the structure may show the parent alone.

Regarding `CCCNCc1ccc(-c2cc3ncnc(Nc4ccc5[nH]ccc5c4)c3s2)cc1` [Example 21, (1H-Indol-5-yl)-[6-(4-propylaminomethyl-phenyl)-thieno[3,2-d]pyrimidin-4-yl]-amine], the melting point lay in the range of 190 to 205 °C.

In turn, `CCOC(=O)CNC(=O)CNCc1ccc(-c2cc3ncnc(Nc4ccc5[nH]ccc5c4)c3s2)cc1` [Example 38, (2-{4-[4-(1H-indol-5-ylamino)-thieno[3,2-d]pyrimidin-6-yl]-benzylamino}-acetylamino)-acetic acid ethyl ester] gave a melting point of 98 to 115 °C.

Molecule `COc1ccc(-c2cc3ncnc(Nc4ccc5[nH]ccc5c4)c3s2)cc1OC` [Example 16, [6-(3,4-Dimethoxy-phenyl)-thieno[3,2-d]pyrimidin-4-yl]-(1H-indol-5-yl)-amine] registered a melting point of 171 to 178 °C.

For the molecule `COc1ccc(-c2cc3ncnc(Nc4ccc5[nH]ccc5c4)c3s2)cn1` [Example 86, (1H-Indol-5-yl)-[6-(6-methoxy-pyridin-3-yl)-thieno[3,2-d]pyrimidin-4-yl]-amine], the melting point is 243 to 249 °C.

For `Cc1nc(Nc2ccc3[nH]ccc3c2)c2sc(-c3ccccc3)cc2n1` [Example 71, (1H-Indol-5-yl)-(2-methyl-6-phenyl-thieno[3,2-d]pyrimidin-4-yl)-amine], the melting point was 205 to 210 °C.

In the case of `COCC1CCCN1Cc1ccc(-c2cc3ncnc(Nc4ccc5[nH]ccc5c4)c3s2)cc1` (stereo not drawn) [Example 42, (1H-Indol-5-yl)-{6-[4-(2-methoxymethyl-pyrrolidin-1-ylmethyl)-phenyl]-thieno[3,2-d]pyrimidin-4-yl}-amine], the melting point is 161 to 177 °C.

`Cc1ccc(-c2cc3ncnc(Nc4ccc5[nH]ccc5c4)c3s2)cc1` [Example 6, (1H-Indol-5-yl)-(6-p-tolyl-thieno[3,2-d]pyrimidin-4-yl)-amine]: the melting point lay within 200 to 220 °C.

In turn, `OCCN(CCO)Cc1ccc(-c2cc3ncnc(Nc4ccc5[nH]ccc5c4)c3s2)cc1` (as salt: mesylate) [Example 29, 2-((2-Hydroxy-ethyl)-{4-[4-(1H-indol-5-ylamino)-thieno[3,2-d]pyrimidin-6-yl]-benzyl}-amino)-ethanol] came in with a melting point of 110 to 127 °C.

Regarding `Cc1cc2cc(Nc3ncnc4cc(-c5ccccc5)sc34)ccc2[nH]1` [Example 68, (2-Methyl-1H-indol-5-yl)-(6-phenyl-thieno[3,2-d]pyrimidin-4-yl)-amine], the melting point is 218 to 220 °C.

The molecule `Cc1cccc(Nc2ncnc3cc(-c4ccccc4)sc23)c1` (as salt: HCl) [Example 92, (6-Phenyl-thieno[3,2-d]pyrimidin-4-yl)-m-tolyl-amine] had a melting point of 238 to 241 °C.

Consider `O=Cc1c[nH]c2ccc(Nc3ncnc4cc(-c5ccccc5)sc34)cc12` [Example 74, 5-(6-Phenyl-thieno[3,2-d]pyrimidin-4-ylamino)-1H-indole-3-carbaldehyde], for which the melting point fell in the range of 174 to 175 °C.

In the case of `Cc1cccc(Nc2ccc(Nc3ncnc4cc(-c5ccccc5)sc34)cc2)c1` [Example 63, N-(6-Phenyl-thieno[3,2-d]pyrimidin-4-yl)-N′-m-tolyl-benzene-1,4-diamine], the melting point lay in the range of 170 to 171 °C.

`c1nc(Nc2ccc3[nH]ccc3c2)c2sc(-c3ccsc3)cc2n1` [Example 8, (1H-indol-5-yl)-(6-thiophen-3-yl-thieno[3,2-d]pyrimidin-4-yl)-amine] displayed a melting point of 178 to 189 °C.

Regarding `c1ccc(-c2cc3ncnc(Nc4ccc(NCc5c[nH]c6ccccc56)cc4)c3s2)cc1` [Example 76, N-(1H-Indol-3-ylmethyl)-N′-(6-phenyl-thieno[3,2-d]pyrimidin-4-yl)-benzene-1,4-diamine], the melting point was in the range of 259 to 261 °C.

In turn, `OCCNCCNCc1ccc(-c2cc3ncnc(Nc4ccc5[nH]ccc5c4)c3s2)cc1` (as salt: mesylate) [Example 31, 2-(2-{4-[4-(1H-indol-5-ylamino)-thieno[3,2-d]pyrimidin-6-yl]-benzylamino}-ethylamino)-ethanol] came in with a melting point of 78 to 95 °C.

`Cc1ccc(Nc2ccc(Nc3ncnc4cc(-c5ccccc5)sc34)cc2)cc1` [Example 64, N-(6-Phenyl-thieno[3,2-d]pyrimidin-4-yl)-N′-p-tolyl-benzene-1,4-diamine] returned a melting point of 221 to 222 °C.

Turning to `c1nc(Nc2ccc3[nH]ccc3c2)c2sc(-c3ccc(CN4CCOCC4)cc3)cc2n1` [Example 37, (1H-Indol-5yl)-[6-(4-morpholin4-ylmethyl-phenyl)-thieno[3,2-d]pyrimidin-4-yl]-amine], the melting point was in the range of 141 to 152 °C.

`Fc1ccc(-c2cc3ncnc(Nc4ccc5[nH]ccc5c4)c3s2)cc1` [Example 4, [6-(4-Fluoro-phenyl)-thieno[3,2-d]pyrimidin-4-yl]-(1H-indol-5-yl)-amine] came in with a melting point of 193 to 205 °C.

In turn, `COc1ccc(Nc2ccc(Nc3nc(C)nc4cc(-c5ccccc5)sc34)cc2)cc1` [Example 72, N-(4-Methoxy-phenyl)-N′-(2-methyl-6-phenyl-thieno[3,2-d]pyrimidin-4-yl)-benzene-1,4-diamine] registered a melting point of 181 to 185 °C.

On to `COc1ccc(Nc2ccc(Nc3ncnc4cc(-c5cccs5)sc34)cc2)cc1` [Example 81, N-(4-Methoxy-phenyl)-N′-(6-thiophen-2-yl-thieno[3,2-d]pyrimidin-4-yl)-benzene-1,4-diamine], for which the melting point was in the range of 231 to 240 °C.

Take `CCc1ccc(-c2cc3ncnc(Nc4ccc5[nH]ccc5c4)c3s2)cc1` [Example 13, [6-(4-Ethyl-phenyl)-thieno[3,2-d]pyrimidin-4-yl]-(1H-indol-5-yl)-amine]: the melting point lay within 171 to 182 °C.

Regarding `OCCOCCNCc1ccc(-c2cc3ncnc(Nc4ccc5[nH]ccc5c4)c3s2)cc1` (as salt: mesylate) [Example 30, 2-(2-(4-[4-(1H-Indol-5-ylamino)-thieno[3,2-d]pyrimidin-6-yl]-benzylamino}-ethoxy)-ethanol], the melting point fell in the range of 111 to 119 °C.

As for `CN1CCN(Cc2ccc(-c3cc4ncnc(Nc5ccc6[nH]ccc6c5)c4s3)cc2)CC1` (as salt: mesylate) [Example 26, (1H-Indol-5-yl)-{6-[4-(4-methyl-piperazin-1-ylmethyl)-phenyl]-thieno[3,2-d]pyrimidin-4-yl}-amine], the melting point fell in the range of 143 to 150 °C.

The molecule `COc1ccc(Nc2ccc(Nc3ncnc4cc(-c5ccccc5)sc34)cc2)cc1OC` [Example 65, N-(3,4-Dimethoxy-phenyl)-N′-(6-phenyl-thieno[3,2-d]pyrimidin-4-yl)-benzene-1,4-diamine] displayed a melting point of 160 to 161 °C.

In turn, `CN(C)CCNCc1ccc(-c2cc3ncnc(Nc4ccc5[nH]ccc5c4)c3s2)cc1` [Example 18, N-{4-[4-(1H-Indol-5-ylamino)-thieno[3,2-d]pyrimidin-6-yl]-benzyl}-N′,N′-dimethyl-ethane-1,2-diamine] showed a melting point of 170 to 183 °C.

As for `c1coc(CNCc2ccc(-c3cc4ncnc(Nc5ccc6[nH]ccc6c5)c4s3)cc2)c1` [Example 34, [6-(4-{[(Furan-2-ylmethyl)-amino]-methyl}-phenyl)-thieno[3,2-d]pyrimidin-4-yl]-(1H-indol-5-yl)-amine], the melting point fell in the range of 125 to 134 °C.

For `COc1ccc(Nc2ccc(Nc3ccnc4cc(-c5ccc(OC)nc5)sc34)cc2)cc1` [Example 87, N-(4-Methoxy-phenyl)-N′-[2-(6-methoxy-pyridin-3-yl)-thieno[3,2-b]pyridin-7-yl]-benzene-1,4-diamine], the melting point was 175 to 184 °C.

In turn, `NC(=O)C1CCN(Cc2ccc(-c3cc4ncnc(Nc5ccc6[nH]ccc6c5)c4s3)cc2)CC1` [Example 44, 1-{4-[4-(1H-Indol-5-ylamino)-thieno[3,2-d]pyrimidin-6-yl]-benzyl}-piperidine-4-carboxylic acid amide] yielded a melting point of 198 to 205 °C.

With `O=[N+]([O-])c1cccc(-c2cc3ncnc(Nc4ccc5[nH]ccc5c4)c3s2)c1` [Example 10, (1H-Indol-5-yl)-[6-(3-nitro-phenyl)-thieno[3,2-d]pyrimidin-4-yl]-amine], the melting point fell in the range of 175 to 183 °C.

Take `COc1cccc(Nc2ccc(Nc3ncnc4cc(-c5ccccc5)sc34)cc2)c1` [Example 66, N-(3-Methoxy-phenyl)-N′-(6-phenyl-thieno[3,2-d]pyrimidin-4-yl)-benzene-1,4-diamine]: the melting point fell in the range of 189 to 191 °C.

Take `c1nc(Nc2ccc3[nH]ccc3c2)c2sc(-c3ccc(CNCCN4CCNCC4)cc3)cc2n1` [Example 23, (1H-Indol-5-yl)-(6-{4-[(2-piperazin-1-yl-ethylamino)-methyl]-phenyl}-thieno[3,2-d]pyrimidin-4-yl)-amine]: the melting point lay in the range of 178 to 191 °C.

`CN(C)CCCNCc1ccc(-c2cc3ncnc(Nc4ccc5[nH]ccc5c4)c3s2)cc1` [Example 36, N-{4-[4-(1H-Indol-5-ylamino)-thieno[3,2-d]pyrimidin-6-yl]-benzyl}-N′,N′-dimethyl-propane-1,3-diamine] came in with a melting point of 148 to 160 °C.

For `c1ccc(-c2cc3ncnc(Nc4ccc5[nH]ccc5c4)c3s2)cc1` [Example 2, (1H-indol-5-yl)-(6-phenyl-thieno[3,2-d]pyrimidin-4-yl)-amine], the melting point was 255 to 258 °C (dec.).

`O=C(c1ccco1)N1CCN(Cc2ccc(-c3cc4ncnc(Nc5ccc6[nH]ccc6c5)c4s3)cc2)CC1` [Example 46, Furan-2-yl-(4-{4-[4-(1H-indol-5-ylamino)-thieno[3,2-d]pyrimidin-6-yl]-benzyl}-piperazin-1-yl)-methanone] had a melting point of 167 to 174 °C.

With `COc1ccc(Nc2ccc(Nc3ncnc4cc(-c5ccccc5)sc34)cc2)cc1` [Example 62, N-(4-Methoxy-phenyl)-N′-(6-phenyl-thieno[3,2-d]pyrimidin-4-yl)-benzene-1,4-diamine], the melting point was in the range of 210 to 211 °C.

For `CSc1ccc(-c2cc3ncnc(Nc4ccc5[nH]ccc5c4)c3s2)cc1` [Example 9, (1H-Indol-5-yl)-[6-(4-methylsulfanyl-phenyl)-thieno[3,2-d]pyrimidin-4-yl]-amine], the melting point lay in the range of 163 to 178 °C.

(Values after patent US6492383B1, “Thienopyrimidine and thienopyridine derivatives useful as anticancer agents” (Pfizer Inc., priority 1998, dated 2002).)
